Target: HSET full length protein (Homo sapiens (Human), UniProt Q9BW19)
Assay: HSET ADP-Glo Assay S - 3 μM ATP
Assay type: biochemical
Details: 5 nM HSET, 70 μg/mL microtubule, 80 min at rt, read-out: COMBINED HSET ADP GLO IC50
Method: Example 281: Testing compounds of the present invention for inhibitory activities against HSET—HSET ADP-Glo Assay S—3 μM ATP
Reagents: (+4° C. Storage) • Paclitaxel Prod.No.TXD.01 2 mM in DMSO (from Universal Biologicals Cambridge). • Tubulin Protein (Pre-formed Microtubules): Bovine Brain Prod.No.MT001-XL Lot.025 10 mg/mL (from Universal Biologicals Cambridge).
Reagents: (−80° C. Storage) • MT001-XL—Tubulin Protein (Pre-formed Microtubules): Bovine Brain—reconstituted in buffer—15 mM PIPES pH7, 1 mM MgCl2, 20 μM paclitaxel (aliquots at 10 mg/mL) from Universal Biologicals Cambridge. • HSET full length protein—Current batch is FL HSET Prep1 (SEQ-000096_002-01_01) • Buffer is 20 mM Hepes pH 7.5, 200 mM NaCl, 2 mM TCEP, 5% glycerol (5 μL aliquots at 10.2 μM)
Reagents: (−20° C. Storage) • ADP-Glo Kinase Assay kit (Promega Prod.No.V9102) 10,000 assay points • ADP-Glo reagent (50 mL), Kinase Detection Reagent (100 mL), and Ultrapure ATP (10 mM) aliquoted
Buffer Stocks (filtered and stored at rt for up to 1 month) • HEPES acid, 4-(2-Hydroxyethyl)piperazine-1-ethanesulfonic acid MW:238, 238.3 mg/mL=1 M • 7149 mg/30 mL=1M (pH to 6.8 with 5 M NaOH) • PIPES, 1,4-Piperazinediethanesulfonic acid MW: 302.4, 30.24 mg/mL=100 mM; 907.2 mg/30 mL=100 mM (pH to 7 with 5 M NaOH, white cloudy suspension until the pH changes) • EGTA, Ethylene glycol-bis(2-aminoethylether)-N,N,N′,N′-tetraacetic acid MW: 380.35, 38.035 mg/mL=100 mM • 1901.75 mg/50 mL=100 mM (pH to ˜7 with 5 M NaOH)—takes a long time to get into solution and for pH to stabilize • Triton-X-100, MW: 625, 62.5 mg/mL=100 mM (6.25% w/v) (viscous, pipette Triton X-100 with a Gilson using a trimmed pipette tip)
ECHO Protocol • Create an ECHO intermediate plate by adding 24.5 μL DMSO to columns 1 & 2, and 40 μL DMSO to columns 23 & 24 of an ECHO 384PP plate • Add 100 nL of compound/DMSO per well in 384-well Proxi-Plate Plus (white) —Perkin Elmer Cat #6008289 using ECHO dose response protocol 100 nL normal to proxi_8pt_200 uM.
Assay buffer (Keep on ice): HEPES pH 6.8, MgCl2, EGTA, Triton X-100, DTT, HPLC H2O Microtubule Working Solution (3.2): • 1 ml PM buffer: PIPES pH 7.0, MgCl2, HPLC H2O, Paclitaxel, mix well, store at rt • Then add 26.4 μL of 10 mg/ml microtubules to 724 μL of the above PM buffer to make 750 μL of microtubule working solution @350 μg/mL microtubules (store at rt)
Stock HSET enzyme solution (3.1)—keep on ice • Add 1.33 μL 10.2 μM HSET Prepi (SEQ-000096_002-01_01) to 1358 μL assay buffer to make a 10 nM stock for a 5 nM final assay concentration (1/1020 dilution).
HSET/Microtubule working solution (3.3) • Mix solutions 3.1 and 3.2 in the ratio of 2.5:1 (1214.3 μL 3.1+485.7 μL 3.2) keep at rt for 15 min • 3.2 is diluted 3.5-fold, 3.1 is diluted 1.4-fold BLANK solution is 357 μL 2XAB+143 μL microtubule working solution 3.2. (Same proportions as HSET/Microtubule working solution (3.3))
ATP Working solution is 1 μL 10 mM UltraPure ATP (Promega kit)+999 μL ddH20 gives 10 μM ATP for a 3 μM final assay concentration, stored on ice.
Assay procedure in PROXIPLATE 384 PLUS WHITE (Perkin Elmer) plates (Remove 2.4 mL ADP Glo and 4.5 mL Kinase detection reagent from freezer to warm up to rt) • Add 3.5 μL BLANK solution to assay plate (column 12) • Add 3.5 μL HSET/Microtubule solution (3.3) (columns 1-11 & 13-24) • Centrifuge at 1000 rpm for 1 min • (pre-incubate enzyme and compound for 10 min)
Add 1.5 μL of 10 μM ATP to start reaction gives a final [HSET] of 5 nM, [ATP] of 3 μM and [microtubule] of 70 μg/mL, centrifuge at 1000 rpm for 1 min and incubated at rt for 80 min.
After the 80-minute incubation, stop reaction by adding 5 μL ADP-Glo reagent to all wells. Centrifuge for 1 min at 1000 rpm, leave for 40 min at rt.
In the dark/away from direct light, add 10 μL Kinase Detection Reagent (KDR) to all wells, Seal plate with a Topseal (Perkin Elmer Cat #6050185) and centrifuge as above, leave for 40 min at rt covered in foil. […]

HSET full length protein, sequence (Q9BW19 whole entry): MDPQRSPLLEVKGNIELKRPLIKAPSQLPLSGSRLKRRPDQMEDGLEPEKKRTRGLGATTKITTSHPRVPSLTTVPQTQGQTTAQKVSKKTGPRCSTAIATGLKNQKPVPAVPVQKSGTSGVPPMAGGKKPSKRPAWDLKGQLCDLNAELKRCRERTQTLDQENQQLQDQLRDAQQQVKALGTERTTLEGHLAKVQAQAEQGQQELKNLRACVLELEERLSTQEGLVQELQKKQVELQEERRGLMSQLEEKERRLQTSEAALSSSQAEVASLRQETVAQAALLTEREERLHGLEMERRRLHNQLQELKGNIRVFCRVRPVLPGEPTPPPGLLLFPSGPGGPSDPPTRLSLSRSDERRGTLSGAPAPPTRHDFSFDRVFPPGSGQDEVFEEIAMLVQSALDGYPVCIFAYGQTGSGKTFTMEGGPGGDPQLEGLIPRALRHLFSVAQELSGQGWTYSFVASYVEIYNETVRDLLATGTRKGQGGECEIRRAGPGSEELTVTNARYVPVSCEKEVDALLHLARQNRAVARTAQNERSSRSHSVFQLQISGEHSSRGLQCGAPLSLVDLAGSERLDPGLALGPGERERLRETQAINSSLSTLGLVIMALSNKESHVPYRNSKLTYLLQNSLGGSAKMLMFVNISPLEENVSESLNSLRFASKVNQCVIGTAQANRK

Row | IC50 [nM] | Structure (SMILES)
1 | 17 | Cc1nc(-c2ccc3ccnc(N[C@H]4C[C@@H](C(=O)Nc5nc(C)c(C(=O)O[C@H](C)C(F)(F)F)s5)C4)c3c2)no1 (stereo in doubt) [Example 114, [(1 R)-2,2,2-trifluoro-1-methyl-ethyl]4-methyl-2-[[3-[[7-(5-methyl-1,2,4-oxadiazol-3-yl)-1-isoquinolyl]amino]cyclobutanecarbonyl]amino]thiazole-5-carboxylate]
2 | 5 | Cc1nc(-c2ccc3ccnc(N[C@H]4C[C@@H](C(=O)Nc5nc(C)c(C(=O)O[C@@H](C)C(F)(F)F)s5)C4)c3c2)no1 (stereo in doubt) [Example 115, [(1 S)-2,2,2-trifluoro-1-methyl-ethyl]4-methyl-2-[[3-[[7-(5-methyl-1,2,4-oxadiazol-3-yl)-1-isoquinolyl]amino]cyclobutanecarbonyl]amino]thiazole-5-carboxylate]
3 | 2730 | CCOC(=O)c1sc(NC(=O)CCNC(=O)c2cccc(C)c2)nc1C [Example 1, Ethyl 4-methyl-2-(3-(3-methylbenzamido)propanamido)thiazole-5-carboxylate]
4 | 3970 | CCOC(=O)c1sc(NC(=O)CCNC(=O)c2cccc(N3CCCC3)c2)nc1C [Example 2, Ethyl 4-methyl-2-(3-(3-(pyrrolidin-1-yl)benzamido)propanamido)thiazole-5-carboxylate]
5 | 4570 | CCOC(=O)c1sc(NC(=O)CCNC(=O)c2cccc(-n3cccn3)c2)nc1C [Example 3, Ethyl 2-(3-(3-(1 H-pyrazol-1-yl)benzamido)propanamido)-4-methylthiazole-5-carboxylate]
6 | 63 | CCOC(=O)c1sc(NC(=O)CCNC(=O)c2cccc(-c3noc(C)n3)c2)nc1C [Example 4, Ethyl 4-methyl-2-(3-(3-(5-methyl-1,2,4-oxadiazol-3-yl)benzamido)propanamido)thiazole-5-carboxylate]
7 | 1660 | CCOC(=O)c1sc(NC(=O)CCNC(=O)c2ccc3c(c2)CCCC3)nc1C [Example 5, Ethyl 4-methyl-2-(3-(5,6,7,8-tetrahydronaphthalene-2-carboxamido)propanamido)thiazole-5-carboxylate]
8 | 614 | CCOC(=O)c1sc(NC(=O)CCNC(=O)c2cccc(-c3cnco3)c2)nc1C [Example 6, Ethyl 4-methyl-2-(3-(3-(oxazol-5-yl)benzamido)propanamido)thiazole-5-carboxylate]
9 | 15600 | CCOC(=O)c1sc(NC(=O)CCNC(=O)c2cccc(N3CCOCC3)c2)nc1C [Example 7, Ethyl 4-methyl-2-(3-(3-morpholinobenzamido)propanamido)thiazole-5-carboxylate]
10 | 1210 | CCOC(=O)c1sc(NC(=O)[C@@H](O)CNC(=O)c2cccc(C)c2)nc1C [Example 8, Ethyl (S)-2-(2-hydroxy-3-(3-methylbenzamido)propanamido)-4-methylthiazole-5-carboxylate]
11 | 36 | CCOC(=O)c1sc(NC(=O)CCNC(=O)c2cc(F)cc(C(=O)OC)c2)nc1C [Example 10, Ethyl 2-[3-[(3-fluoro-5-methoxycarbonyl-benzoyl)amino]propanoylamino]-4-methyl-thiazole-5-carboxylate]
12 | 1830 | CCOC(=O)c1sc(NC(=O)CCNC(=O)c2cccc(C(=O)OC)c2F)nc1C [Example 11, Ethyl 2-[3-[(2-fluoro-3-methoxycarbonyl-benzoyl)amino]propanoylamino]-4-methyl-thiazole-5-carboxylate]
13 | 1100 | CCOC(=O)c1sc(NC(=O)CCNC(=O)c2cc(C(=O)OC)ccc2Cl)nc1C [Example 12, Ethyl 2-[3-[(2-chloro-5-methoxycarbonyl-benzoyl)amino]propanoylamino]-4-methyl-thiazole-5-carboxylate]
14 | 9 | CCOC(=O)c1sc(NC(=O)CCNC(=O)c2cc(Cl)cc(C(=O)OC)c2)nc1C [Example 13, Ethyl 2-[3-[(3-chloro-5-methoxycarbonyl-benzoyl)amino]propanoylamino]-4-methyl-thiazole-5-carboxylate]
15 | 325 | CCOC(=O)c1sc(NC(=O)CCNC(=O)c2ccc(C)c(C(=O)OC)c2)nc1C [Example 14, Ethyl 2-[3-[(3-methoxycarbonyl-4-methyl-benzoyl)amino]propanoylamino]-4-methyl-thiazole-5-carboxylate]
16 | 9 | CCOC(=O)c1sc(NC(=O)CCNC(=O)c2cc(C)cc(C(=O)OC)c2)nc1C [Example 15, Ethyl 2-[3-[(3-methoxycarbonyl-5-methyl-benzoyl)amino]propanoylamino]-4-methyl-thiazole-5-carboxylate]
17 | 301 | CCOC(=O)c1sc(NC(=O)CCNC(=O)c2cc(OC)cc(C(=O)OC)c2)nc1C [Example 16, Ethyl 2-[3-[(3-methoxy-5-methoxycarbonyl-benzoyl)amino]propanoylamino]-4-methyl-thiazole-5-carboxylate]
18 | 869 | CCOC(=O)c1sc(NC(=O)CCNC(=O)c2cc(C#N)cc(C(=O)OC)c2)nc1C [Example 17, Ethyl 2-[3-[(3-cyano-5-methoxycarbonyl-benzoyl)amino]propanoylamino]-4-methyl-thiazole-5-carboxylate]
19 | 14 | CCOC(=O)c1sc(NC(=O)CCNC(=O)c2cc(Br)cc(C(=O)OC)c2)nc1C [Example 18, Ethyl 2-[3-[(3-bromo-5-methoxycarbonyl-benzoyl)amino]propanoylamino]-4-methyl-thiazole-5-carboxylate]
20 | 17 | CCOC(=O)c1sc(NC(=O)CCNC(=O)c2cc(CC)cc(C(=O)OC)c2)nc1C [Example 19, Ethyl 2-[3-[(3-ethyl-5-methoxycarbonyl-benzoyl)amino]-propanoylamino]-4-methyl-thiazole-5-carboxylate]
21 | 737 | CCOC(=O)c1sc(NC(=O)CCNC(=O)c2cc(O)cc(C(=O)OC)c2)nc1C [Example 20, Ethyl 2-[3-[(3-hydroxy-5-methoxycarbonyl-benzoyl)amino]-propanoylamino]-4-methyl-thiazole-5-carboxylate]
22 | 17100 | CCOC(=O)c1sc(NCCCNC(=O)c2cccc(-c3noc(C)n3)c2)nc1C [Example 21, Ethyl 4-methyl-2-[3-[[3-(5-methyl-1,2,4-oxadiazol-3-yl)benzoyl]amino]-propylamino]thiazole-5-carboxylate]
23 | 6350 | CCOC(=O)c1sc(NC(=O)CCNC(=O)c2cc(/C=C/c3ccccc3)cc(C(=O)OC)c2)nc1C [Example 22, Ethyl 2-[3-[[3-methoxycarbonyl-5-[(E)-styryl]benzoyl]amino]-propanoylamino]-4-methyl-thiazole-5-carboxylate]
